Values after ≈ are worked out from the molar mass of the structure shown. Where two headings read alike, the source gives them in different places.
How the values were obtained:
Format in all cases: cell-based
[1] = system: Enterococcus faecalis ATCC 29212; experiment: MIC by microdilution in liquid medium (CLSI / CA-SFM); conditions: E. faecalis ATCC 29212; HaCaT cell lines, 24 h exposure
[2] = system: MRC-5 cells (human embryonic fibroblasts); experiment: Cellular viability test (MTT test); conditions: read-out: IC50 viability test (with MTT)
Source text: (§1) The eukaryotic cells used in our study are HaCaT cells (human keratinocytes), which were kindly supplied by the Pierre Fabre Institute (Toulouse, France); and MRC-5 cells (human embryonic fibroblasts), which were obtained from the company BioMérieux (Lyons, France). These cells are cultivated in DMEM (“Dulbecco's modified Eagle's medium”, Invitrogen 61965) for the HaCaT cells, and MEM (“modified Eagle's medium”, Invitrogen 41090); 10% of fetal calf serum (FCS, Invitrogen, 10270, Batch 40Q5150K) in a humid chamber at 37° C., under 5% CO2. The HaCaT and MRC-5 cells were seeded at 10^4 cells/well in 96-well plates (Sarstedt 831835). After 48 h of growth, the culture medium is withdrawn and replaced with the various “test” solutions (volume=100 μL). After contact time of 24, 48 and/or 168 H,the viability or cytotoxicity tests are carried out.
a) Cellular Viability Tests (MTT Test)
In order to evaluate the effect of the various compounds tested on the viability of HaCaT and MRC-5 cells, the MTT technique (3-[4,5-dimethylthiazol-2-yl]-2,5-diphenyltetrazolium bromide; MTT, Aldrich, 135038), described by Mosmann [Mosmann T. Rapid colorimetric assay for cellular growth and survival: application to proliferation and cytotoxicity assays. J Immunol Methods. 1983; 65: 55-63] and modified by Grare et al. [Grare M, Mourer M, Fontanay S, Regnouf-de-Vains J B, Finance C, Duval R E. In vitro activity of para-guanidinoethylcalix[4]arene against susceptible and antibiotic-resistant Gram-negative and Gram-positive bacteria. J Antimicrob Chemother. 2007; 60: 575-81], was used.
It is based on the reduction of yellow tetrazolium salts to purple crystals of formazan, mainly by mitochondrial dehydrogenases. The quantity of formazan formed is proportional to the number of live cells. After the contact times of 24, 48 and/or 168 h with the different concentrations of the test molecules, 10 nI, of MTT (at 5 mg/mL) is added to each well and the plates are placed at 37° C. After incubation for 4 H,the insoluble crystals of formazan that have formed are dissolved by adding 100 μL SDS to each well. The absorbance is measured at 540 nm with a reference wavelength at 690 nm, using an ELISA plate reader (Multiskan E X, Thermo Electron Corporation, France). The results are the mean of the values obtained for 8 wells per concentration and per unit time. Each experiment was carried out 3 times.

[3] = in vitro; conditions: human
Source text: as §1
b) Cytotoxicity Tests (Neutral Red Test)
The cytotoxicity test is based on incorporation of a vital dye, Neutral Red, in the lysosomes of the viable cells, after exposure of the cells to different concentrations of the test molecules. The quantity of dye, after extraction from the lysosomes, is quantified by means of a spectrophotometer and compared with that obtained in the case of “control” cells, not exposed to the test molecules.
The test was carried out as described previously [Borenfreund E, Puerner J A. Toxicity determined in vitro by morphological alterations and neutral red absorption. Toxicol Lett 1985; 24: 119-24, and Grare M, Mourer M, Fontanay S, Regnouf-de-Vains J B, Finance C, Duval R E. In vitro activity of para-guanidinoethylcalix[4]arene against susceptible and antibiotic-resistant Gram-negative and Gram-positive bacteria. J Antimicrob Chemother. 2007; 60: 575-81].
After contact times of 24, 48 and/or 168 h with the different concentrations of the test molecules, the medium contained in each well is withdrawn and replaced with 200 μL of medium without phenol red (Invitrogen, 51200) containing 50 μg/mL of Neutral Red for an additional 3 h of incubation. The cells are then rinsed 3 times with PBS solution. After the last washing with PBS, 200 μL of a solution with 1% acetic acid/50% ethanol is added to each well to extract the dye from the lysosomes of the viable cells. The absorbance is measured at 540 nm, with a reference wavelength at 690 nm, by means of an ELISA plate reader (Multiskan E X, Thermo Electron Corporation, France). The results are the mean of the values obtained for 8 wells per concentration and per unit time. Each experiment was carried out 3 times.

[4] = system: MRSA (mecA gene), methicillin-resistant S. aureus (SaR1); experiment: MIC by microdilution, clinical isolate; conditions: Staphylococcus aureus
Experimental: (§2) The study also included 5 clinical isolates, obtained from rectal samples and/or from haemoculture: • […] E. coli (EcR1), • methicillin-resistant S. aureus (mecA gene) (SaR1), • vancomycin-resistant E. faecium (vanB gene) (EfR1), • E. faecalis resistant to teicoplanin and to vancomycin (vanA gene) (EfR2), and • P. aeruginosa overexpressing an efflux pump (PaRl).
(§3) The isolates were selected on the basis of their resistance profile. The resistance profiles were determined on VITEK2 (BioMérieux, France).
(§4) The bacteria are cultivated either on Mueller-Hinton agar (Difco, 225250), or in Mueller-Hinton broth (Difco, 275730), at 35° C. [Grare M, Mourer M, Fontanay S, Regnouf-de-Vains J B, Finance C, Duval R E. In vitro activity of para-guanidinoethylcalix[4]arene against susceptible and antibiotic-resistant Gram-negative and Gram-positive bacteria. J. Antimicrob Chemother. 2007; 60: 575-81].
(§5) The various molecules tested were prepared in the form of aqueous solution at 10^−2 mol/L. The solutions used for the biological tests are freshly prepared, and stored for a week at most, at 4° C. The solutions are filtered through a filter with pores of 0.22 μm (Millex®GP; 0.22 μm; Millipore; France) before each test.
(§6) Procedure for determining the Minimum Inhibitory Concentration (MIC)
(§7) The minimum inhibitory concentrations (MIC) were determined by the standardized method of microdilution in liquid medium (96-well microplate, U-shaped bottom, Greiner), in Mueller-Hinton broth, with a final inoculum of 10^5-10^6 CFU/mL, depending on the bacterial species, in accordance with the recommendations of the CLSI.
(§8) For the determination of MIC, bacterial suspensions are prepared from an isolated colony, taken from a Mueller-Hinton agar, taken up in 5 mL of Mueller-Hinton broth. After 24 h of growth, the bacterial suspensions are diluted in sterile distilled water in order to obtain an inoculum of 10^5-10^6 CFU/mL. The purity of the bacterial suspensions is tested by isolation on agar and Gram staining.
(§9) The results are the mean value of 4 independent experiments.

[5] = system: vancomycin-resistant E. faecium (vanB gene) (EfR1); experiment: MIC by microdilution, clinical isolate; conditions: Enterococcus faecium
Experimental: as §2, §3, §4, §5, §6, §7, §8, §9

[6] = system: penicillinase-producing E. coli (EcR1); experiment: MIC by microdilution, clinical isolate; conditions: Escherichia coli
Experimental: as §2, §3, §4, §5, §6, §7, §8, §9

[7] = clinical isolate, MRSA (mecA gene), read-out: MIC
[8] = clinical isolate, E. faecium (vanB gene), read-out: MIC
[9] = clinical isolate, penicillinase-producing E. coli, read-out: MIC

SMILES | Selectivity index (SI=IC50/MIC) [1] | IC50 ([2]; MRC5, MRC-5, 24 h) | IC50 ([2]; MRC5, MRC-5, 48 h) | IC50 ([2]; MRC5, MRC-5, 168 h) | CC50 at 24 h [3] | MIC [4, 7] | MIC [5, 8] | MIC [6, 9] | IC50 ([2]; MRC5, 24 h) | IC50 ([2]; MRC5, 48 h) | IC50 ([2]; MRC5, 168 h) | CC50 at 48 h [3] | MIC ([4]; MRSA) | MIC [5] | MIC [6] | CC50 at 168 h [3]
[H]/N=C(\N/C(=N/[H])NCCCCCCNC(=N)NC(=N)Nc1ccc(Cl)cc1)Nc1ccc(Cl)cc1 [CHX, chlorhexidine] | 8-16 | 16 to 32 µg/mL (≈ 31.7 to 63.3 µM) | 8 to 16 µg/mL (≈ 15.8 to 31.7 µM) | 1 to 2 µg/mL (≈ 1.98 to 3.96 µM) | 8 to 16 µg/mL (≈ 15.8 to 31.7 µM) | 0.5 µg/mL (≈ 0.989 µM) | 1 µg/mL (≈ 1.98 µM) | 0.5 µg/mL (≈ 0.989 µM) |  |  |  |  |  |  |  | 
N=C(N)c1ccc(OCCCCCCOc2ccc(C(=N)N)cc2)cc1 [HX, hexamidine] | 16-32 |  |  |  | 8 to 16 µg/mL (≈ 22.6 to 45.1 µM) |  |  |  | 32 to 64 µg/mL (≈ 90.3 to 181 µM) | 16 to 32 µg/mL (≈ 45.1 to 90.3 µM) | 4 to 8 µg/mL (≈ 11.3 to 22.6 µM) | 8 to 16 µg/mL (≈ 22.6 to 45.1 µM) | 2 µg/mL (≈ 5.64 µM) | 2 µg/mL (≈ 5.64 µM) | 8 µg/mL (≈ 22.6 µM) | 
N=C(N)NCCc1ccc(OCCCCCCOc2ccc(CCNC(=N)N)cc2)cc1 [compound 6, 1,6-bis(4-(2-guanidinoethyl)phenoxy)hexane] | 0.5-1^ | 8 to 16 µg/mL (≈ 18.2 to 36.3 µM) | 4 to 8 µg/mL (≈ 9.08 to 18.2 µM) | 0.5 to 1 µg/mL (≈ 1.13 to 2.27 µM) | 4 to 8 µg/mL (≈ 9.08 to 18.2 µM) | < 1 µg/mL | 8 µg/mL (≈ 18.2 µM) | 4 µg/mL (≈ 9.08 µM) |  |  |  | 2 to 4 µg/mL (≈ 4.54 to 9.08 µM) |  |  |  | 1 to 2 µg/mL (≈ 2.27 to 4.54 µM)

Reference: patent publication US8703825B2, “Compounds, use thereof as medicaments, and method of preparation thereof” (Universite de Lorraine, priority 2008, dated 2014)
